We go through 38 molecules from ChEMBL document CHEMBL1149234, “Exploration of the P1 SAR of aldehyde cathepsin K inhibitors” (Bioorg Med Chem Lett, 2004).

The target in the test is T1, Cathepsin K (Homo sapiens, UniProt P43235).
T1 sequence (P43235 whole entry): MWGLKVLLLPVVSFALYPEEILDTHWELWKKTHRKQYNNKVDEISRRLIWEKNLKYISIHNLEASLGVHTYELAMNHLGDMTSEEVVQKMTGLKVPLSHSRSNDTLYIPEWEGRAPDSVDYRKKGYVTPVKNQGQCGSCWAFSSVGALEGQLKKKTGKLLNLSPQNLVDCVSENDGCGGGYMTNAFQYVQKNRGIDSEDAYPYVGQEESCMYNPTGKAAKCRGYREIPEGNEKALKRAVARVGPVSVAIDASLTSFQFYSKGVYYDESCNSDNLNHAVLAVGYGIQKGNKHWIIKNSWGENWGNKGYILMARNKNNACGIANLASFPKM
As to the kind of experiment: Inhibitory activity against recombinant human cathepsin K.
As usually defined, the IC50 is the concentration that gives 50% inhibition. Regarding `CCCCCC[C@@H](C=O)NC(=O)OC(C)(C)C`, the IC50 stood at 23 nM. With `CC(C)(C)OC(=O)N[C@H](C=O)CCCc1ccccc1`, the IC50 stood at 15 nM. Next, `COC(=O)NC[C@@H](C=O)NC(=O)OC(C)(C)C`: 370 nM.

For `CCC(C)[C@H](C=O)NC(=O)OC(C)(C)C` (stereo partly drawn), the IC50 turned out to be 130 nM. Next, `CCC(C)[C@@H](C=O)NC(=O)OC(C)(C)C` (stereo partly drawn): 250 nM; `CC(C)(C)OC(=O)N[C@H](C=O)CCCC1CCCCC1`: 16 nM. In the case of `CC(C)(C)OC(=O)N[C@H](C=O)CC1CCCCC1`, the IC50 came out at 36 nM. As to `CCCCC[C@@H](C=O)NC(=O)OC(C)(C)C`, the IC50 was 110 nM. The result for `CSCC[C@@H](C=O)NC(=O)OC(C)(C)C` reads 78 nM. The result for `CC(C)(C)OC(=O)N[C@H](C=O)c1ccccc1` reads 51 nM. For the molecule `CC(C)(C)OC(=O)N[C@H](C=O)CCc1ccccc1`, the IC50 amounted to 30 nM. Next, `CN(CCCC[C@@H](C=O)NC(=O)OC(C)(C)C)C(=O)C(F)(F)F`: 50 nM; `CC(C)[C@@H](C=O)NC(=O)OC(C)(C)C`: 160 nM; `CC(C)(C)OC(=O)N[C@H](C=O)CCCCNC(=O)C(F)(F)F`: 41 nM. The result for `CN(CCC[C@@H](C=O)NC(=O)OC(C)(C)C)C(=O)C(F)(F)F` reads 29 nM; that for `COCC[C@@H](C=O)NC(=O)OC(C)(C)C`, 680 nM. Take `CN(CC[C@@H](C=O)NC(=O)OC(C)(C)C)C(=O)C(F)(F)F`: the IC50 came out at 98 nM. The result for `CC[C@@H](C=O)NC(=O)OC(C)(C)C` reads 58 nM; that for `CCSC[C@@H](C=O)NC(=O)OC(C)(C)C`, 83 nM; that for `CC(C)(C)C[C@@H](C=O)NC(=O)OC(C)(C)C`, 250 nM.

Consider `CCOC[C@@H](C=O)NC(=O)OC(C)(C)C`, for which the 50% inhibitory concentration (IC50) came to 660 nM. For the molecule `CC(C)(C)OC(=O)N[C@H](C=O)Cc1ccccc1`, the IC50 came to 110 nM.

As to `C/C=C/C[C@@H](C=O)NC(=O)OC(C)(C)C`, the half-inhibitory concentration (IC50) amounted to 150 nM. Regarding `CCC[C@@H](C=O)NC(=O)OC(C)(C)C`, the IC50 was found to be 38 nM.

For `CC#CC[C@@H](C=O)NC(=O)OC(C)(C)C`, the IC50 was 410 nM. Next, `C[C@@H](C=O)NC(=O)OC(C)(C)C`: 200 nM. The result for `CC(C)(C)OC(=O)N[C@H](C=O)C(C)(C)C` reads 52000 nM; that for `CC(C)(C)OC(=O)NCC=O`, 5800 nM.

Take `CC(C)(C)OC(=O)N[C@H](C=O)CCCC(F)(F)F`: the IC50 was found to be 87 nM. Regarding `CC(C)(C)OC(=O)N[C@H](C=O)CCC1CCCCC1`, the IC50 was 26 nM. The result for `COC(=O)NCCCC[C@@H](C=O)NC(=O)OC(C)(C)C` reads 15 nM.

`C/C=C\C[C@@H](C=O)NC(=O)OC(C)(C)C`: the half-inhibitory concentration (IC50) was 41 nM. The result for `C=C(C)C[C@@H](C=O)NC(=O)OC(C)(C)C` reads 79 nM. For the molecule `CC(C)(C)OC(=O)N[C@H](C=O)CSCc1ccccc1`, the half-inhibitory concentration (IC50) was found to be 40 nM. For `CC(C)(C)OC(=O)N[C@H](C=O)COCc1ccccc1`, the IC50 was 38 nM. The result for `CC(C)C[C@@H](C=O)NC(=O)OC(C)(C)C` reads 31 nM. The result for `CCCC[C@@H](C=O)NC(=O)OC(C)(C)C` reads 51 nM; that for `CCCC[C@@H](C=O)NC(=O)[C@H](CC(C)C)NC(=O)OCc1ccccc1` [CALPEPTIN], 0.11 nM.
